No end group written: not given here.
Experiments:
CFPAC-1 cells [1] = experiment: Inhibition of ligand-induced EMT by JAK or MEK inhibitor; format: cell-based, human; conditions: JAK inhibitor 0.25 μM
Procedure: Supernatents were micro-centrifuged at max speed, 4° C. for 10 minutes. […] SDS PAGE was run using a Bis-Tris gel system (Invitrogen NuPAGE) with MOPS buffer (Invitrogen NP0001), transferred onto nitrocellulose using the iBLOT system (Invitrogen) and blocked in PBS-T (0.1% Tween 20), 5% non-fat milk or BSA in guidance with primary Ab supplier requirements. […] Secondary HRP labeled antibodies used were: anti Rabbit IgG HRP (Amersham NA934) 1:5000 dilution; anti Mouse IgG HRP (Sigma A2304) 1:2000 dilution. Membranes were visualized using the Supersignal ELISA Femto Maximum Sensitivity Substrate (Pierce).

[2] = system: advanced, treatment-refractory NSCLC; conditions: phase III, monotherapy, patients with advanced; cited from earlier work
pancreatic cancer = conditions: phase III, first-line, in combination with gemcitabine; cited from earlier work
CFPAC-1 cells [3] = experiment: Induction of EMT by growth factors and cytokines, E-cadherin and vimentin immunoblotting; format: cell-based, human; conditions: CFPAC-1 cells treated 7 days with ligand
Procedure: The CFPAC1 cell line was cultured in DMEM media (Gibco #11960) supplemented with 10% FBS (Sigma), 2 mM L Glutamine (Gibco), at 37° C., 5% CO2. For 7 day treatments, cells were seeded on tissue culture plastic in complete growth media and allowed to attach overnight at cell densities that would provide approximately 60-80% confluence at end of experiment. Ligand and/or inhibitor was added the following day (Day 0) in complete growth media and incubated at 37° C., 5% CO2. Ligand source and concentrations used are as follows: [1] From R&D systems, SDF-1α (stromal derived factor-1 alpha) at 100 ng/ml, TRANCE (TNF-related activation induced cytokine) at 50 ng/ml, FGF1 (fibroblast growth factor acidic) at 10 ng/ml, FGF2 (fibroblast growth factor basic) at 10 ng/ml, BMP4 (bone morphogenetic protein 4) at 100 ng/ml, BMP7 (bone morphogenetic protein 7) at 100 ng/ml, IGF2 (insulin-like growth factor 2) at 100 ng/ml, OSM (Oncostatin M) at 100 ng/ml, NRG1 (Neuregulin-1) at 50 ng/ml, PDGFaa (Platelet derived growth factor a) at 50 ng/ml, PDGFbb (platelet derive growth factor b) at 30 ng/ml, Ang2 (Angiopoeitin 2) at 400 ng/ml, amphiregulin at 100 ng/ml, HMGB 1 (Human high-mobility group box 1 protein) at 50 ng/ml; [2] From Genscript, LIF (Leukemia inhibitory factor) at 20 ng/ml, GM-CSF (Granulocyte macrophage colony stimulating factor) at 25 ng/ml, M-CSF (Macrophage colony stimulating factor) at 50 ng/ml; [3] From Anaspec, PAR1 (Protease activated receptor 1 agonist) at 100 μM; PAR2 (Protease activated receptor 2 agonist; peptide SLIGKV-NH2, Cat. No. 60217-1) at 100 μM; PAR4 (Protease activated receptor […] agonist; peptide AYPGKF-NH2, Cat. No. 60218-1) at 100 μM; [4] From Peprotech, HGF (Hepatocyte Growth Factor) at 100 ng/ml; IL-31 (Interleukin-31) at 50 ng/ml, IL-33 (Interleukin-33) at 50 ng/ml, IL1-a (Interleukin-1 alpha) at 10 ng/ml, CTGF (Connective tissue growth factor) at 20 ng/ml, WISP1 (Wnt-1 inducible signaling pathway protein) at 20 ng/ml, PTHrP ([…] hormone-related protein) at 50 ng/ml, MCP1 (monocyte chemotactic protein-1) at 50 ng/ml; and [5] from Sigma, Fulvestrant at 1 μM. Fresh medium containing ligand and/or inhibitor was added 3-4 days after initial dose, and at Day 7 cells were harvested for western blot analysis.
Cells were harvested by washing once with PBS, and lysing on ice for 10 minutes with scraping (using a Cell Lifter, Corning Inc. #3008) in ice cold RIPA buffer (Sigma R0278) containing Protease inhibitor (Sigma P8340), Phosphatase inhibitors (Sigma P2850, P5726) and 200 μM Sodium Vanadate. Supernatents were micro-centrifuged at max speed, 4° C. for 10 minutes. Protein content was quantitated using the BCA method (Pierce #23225) and samples were normalized to total protein in Laemli buffer and heated at 100° C. for 10 minutes. SDS PAGE was run using a Bis-Tris gel system (Invitrogen NuPAGE) with MOPS buffer (Invitrogen NP0001), transferred onto nitrocellulose using the iBLOT system (Invitrogen) and blocked in PBS-T (0.1% Tween 20), 5% non-fat milk or BSA in guidance with primary Ab supplier requirements. All primary antibodies were incubated overnight at 4° C. in PBS-T (0.1% Tween 20) in either 5% non-fat milk or BSA, diluted to the following working dilutions: anti E Cadherin (Santa Cruz #sc-21791) 1:500 dilution; anti Vimentin (BD Biosciences #550513) 1:2000 dilution;); anti GAPDH HRP conjugate (Santa Cruz sc-25778) 1:1000 dilution; anti β-Actin (Sigma, A5441) 1:10,000 dilution. […]

| Compound | Induction of EMT (E-cadherin down, vimentin up) (CFPAC-1 cells [3]) | other results |
| --- | --- | --- |
| CC(C)(C)c1nc2c3cc[nH]c(=O)c3c3cc(F)ccc3c2[nH]1 [JAK inhibitor] |  | Block of morphology change (CFPAC-1 cells [1]; CFPAC-1 cells treated with OSM 7 days, light microscopy): blocked the morphology change; Block of EMT process (CFPAC-1 cells [1]; OSM-triggered EMT, 7 days, MEK inhibitor 3 μM): could block EMT process |
| C#Cc1cccc(Nc2ncnc3cc(OCCOC)c(OCCOC)cc23)c1 [erlotinib, [6,7-bis(2-methoxyethoxy)-4-quinazolin-4-yl]-(3-ethynylphenyl) amine] |  | Survival, disease progression, lung cancer-related symptoms [2]: significantly prolonged survival, delayed disease progression and delayed worsening of lung cancer-related symptoms; Survival (pancreatic cancer): improves survival |
| AYPGKF-NH2 [PAR4 agonist AYPGKF-NH2, reference compound] | Partial EMT |  |
| IGF2: insulin-like growth factor 2, R&D systems, 100 ng/ml | Partial EMT |  |
| LIF: Leukemia inhibitory factor, Genscript, 20 ng/ml | Partial EMT |  |
| SLIGKV-NH2 (UniProt P55085 37-42, looked up, fragment) [PAR2 agonist SLIGKV-NH2, reference compound] | Partial EMT |  |

From patent US8642834B2, “Methods for the identification of agents that inhibit mesenchymal-like tumor cells or their formation” (OSI Pharmaceuticals, LLC, priority 2009, dated 2014)
